Source: patent publication US20240279201A1, “DUAL WNT SIGNALING PATHWAY INHIBITORS AND AMPK ACTIVATORS FOR TREATMENTS OF DISEASE” (priority 2021, published 2024)

Legend:
[1] = system: Wnt/β-Catenin signaling pathway; test: Wnt signaling luciferase (TOPflash) reporter gene assay; assay type: cell-based; conditions: for IC50: luciferase reporter gene assay, mean of three independent experiments, read-out: IC50 (nM) to inhibit the Wnt signaling activity
Excerpt: A dual-luciferase gene reporter assay was used to test inhibitory activities of new compounds on Wnt signaling. […] Therefore, the effects of new compounds on AMPK was examined. […]

[2] = Cytotoxicity (CC50) during the luciferase gene reporter assay; assay type: cell-based; conditions: human, HEK293 cells; short treatment duration of the luciferase gene reporter assay

| SMILES | inhibition at 1 µM [1] | IC50 [1] | CC50 [2] |
| --- | --- | --- | --- |
| Cc1c(C(=O)Nc2nc3ccc(F)cc3s2)nnn1-c1ccccc1F [YA4155, N-(6-Fluorobenzo[d]thiazol-2-yl)-1-(2-fluorophenyl)-5-methyl-1H-1,2,3-triazole-4-carboxamide] | 96% | 0.4 nM | > 92000 nM |
| Cc1ccccc1-n1nnc(C(=O)Nc2ccc3ncccc3n2)c1C [YA6147, 5-Methyl-N-(1,5-naphthyridin-2-yl)-1-(o-tolyl)-1H-1,2,3-triazole-4-carboxamide] | – | > 1000 nM | > 92000 nM |
| O=C(Nc1nc2ccccc2s1)c1nnn(-c2ccccc2F)c1C(F)(F)F [YA6168, N-(Benzo[d]thiazol-2-yl)-1-(2-fluorophenyl)-5-(trifluoromethyl)-1H-1,2,3-triazole-4-carboxamide] | 91% | 3.3 nM | > 92000 nM |
| Cc1ccccc1C1CCC(C(=O)Nc2nc3ccccc3s2)C1 (stereo not shown) [YA4138] | – | > 1000 nM | > 92000 nM |
| Cc1ccccc1-n1nnc(C(=O)Nc2nc(-c3ccccc3Br)cs2)c1C [YA4135] | – | > 1000 nM | > 92000 nM |
| CCc1c(C(=O)Nc2nc3ccc(F)cc3s2)nnn1-c1ccccc1F [YA4165, 5-Ethyl-N-(6-fluorobenzo[d]thiazol-2-yl)-1-(2-fluorophenyl)-1H-1,2,3-triazole-4-carboxamide] | – | 0.5 nM | > 92000 nM |
| Cc1c(C(=O)Nc2nc3ccccc3s2)nnn1-c1ccccc1Cl [YA6027, N-(Benzo[d]thiazol-2-yl)-1-(2-chlorophenyl)-5-methyl-1H-1,2,3-triazole-4-carboxamide] | 98% | 0.8 nM | > 92000 nM |
| COc1ccccc1-n1nnc(C(=O)Nc2cnc3ccccc3n2)c1C [YA6136, 1-(2-Methoxyphenyl)-5-methyl-N-(quinoxalin-2-yl)-1H-1,2,3-triazole-4-carboxamide] | – | 1.8 nM | > 92000 nM |
| Cc1c(C(=O)Nc2nc3ccccc3s2)nnn1-c1c(F)cccc1F [YA6090, N-(Benzo[d]thiazol-2-yl)-1-(2,6-difluorophenyl)-5-methyl-1H-1,2,3-triazole-4-carboxamide] | 97% | 2.5 nM | > 92000 nM |
| Cc1ccccc1-n1nnc(C(=O)Nc2nc3ccc(Br)cc3s2)c1C [YA4059, N-(6-Bromobenzo[d]thiazol-2-yl)-5-methyl-1-(o-tolyl)-1H-1,2,3-triazole-4-carboxamide] | 31% | > 1000 nM | > 92000 nM |
| O=C(Nc1nc2ccc(F)cc2s1)c1nnn(-c2ccccc2F)c1C(F)(F)F [YA6175, N-(6-Fluorobenzo[d]thiazol-2-yl)-1-(2-fluorophenyl)-5-(trifluoromethyl)-1H-1,2,3-triazole-4-carboxamide] | 85% | 17 nM | > 92000 nM |
| Cc1c(C(=O)Nc2nc3ccccc3s2)cnn1-c1ccccc1Cl [YA4025, N-(Benzo[d]thiazol-2-yl)-1-(2-chlorophenyl)-5-methyl-1H-pyrazole-4-carboxamide] | – | 0.4 nM | > 92000 nM |
| Cc1ccccc1-n1ncc(C(=O)Nc2nc(-c3ccccc3)cs2)c1C [YA7015, 5-Methyl-N-(4-phenylthiazol-2-yl)-1-(o-tolyl)-1H-pyrazole-4-carboxamide] | – | > 1000 nM | > 92000 nM |
| Cc1ccccc1-n1ncc(C(=O)Nc2nc3ccccc3s2)c1C [YA6179, N-(Benzo[d]thiazol-2-yl)-5-methyl-1-(o-tolyl)-1H-pyrazole-4-carboxamide] | – | 1.4 nM | > 92000 nM |
| Cc1c(C(=O)Nc2cnc3ccccc3n2)nnn1-c1ccccc1C#N [YA6137, 1-(2-Cyanophenyl)-5-methyl-N-(quinoxalin-2-yl)-1H-1,2,3-triazole-4-carboxamide] | – | 6 nM | > 92000 nM |
| Cc1c(C(=O)Nc2nc3ccccc3s2)nnn1-c1ccccc1F [YA4029, N-(benzo[d]thiazol-2-yl)-1-(2-fluorophenyl)-5-methyl-1H-1,2,3-triazole-4-carboxamide] | 100% | 0.46 nM | > 92000 nM |
| Cc1ccccc1-c1csc(NC(=O)c2nnn(-c3ccccc3C)c2C)n1 [YA4171] | – | > 1000 nM | > 92000 nM |
| Cc1ccccc1-n1nnc(C(=O)Nc2cccc3cccnc23)c1C [YA6055, 5-Methyl-N-(quinolin-8-yl)-1-(o-tolyl)-1H-1,2,3-triazole-4-carboxamide] | – | > 1000 nM | > 92000 nM |
| Cc1cc(Br)ccc1-n1nnc(C(=O)Nc2nc3ccccc3s2)c1C [YA6009] | 15% | > 1000 nM | > 92000 nM |
| Cc1ccc(-c2csc(NC(=O)c3nnn(-c4ccccc4C)c3C)n2)cc1 [YA4141] | – | > 1000 nM | > 92000 nM |

| SMILES | inhibition at 1 µM [1] | IC50 [1] | CC50 [2] |
| --- | --- | --- | --- |
| COc1ccc2nc(NC(=O)c3nnn(-c4ccccc4C)c3C)sc2c1 [YA4091, N-(6-Methoxybenzo[d]thiazol-2-yl)-5-methyl-1-(o-tolyl)-1H-1,2,3-triazole-4-carboxamide] | 12% | > 1000 nM | > 92000 nM |
| Cc1c(C(=O)Nc2nc3ccccc3s2)nnn1-c1ccccc1C(F)(F)F [YA6089, N-(Benzo[d]thiazol-2-yl)-5-methyl-1-(2-(trifluoromethyl)phenyl)-1H-1,2,3-triazole-4-carboxamide] | 89% | 17 nM | > 92000 nM |
| Cc1c(C(=O)Nc2cnc3ccccc3n2)nnn1-c1ccccc1F [YA6138, 1-(2-Fluorophenyl)-5-methyl-N-(quinoxalin-2-yl)-1H-1,2,3-triazole-4-carboxamide] | – | 0.15 nM | > 92000 nM |
| Cc1ccccc1-n1nnc(C(=O)Nc2ncc(-c3ccccc3)s2)c1C [YA4085, 5-Methyl-N-(5-phenylthiazol-2-yl)-1-(o-tolyl)-1H-1,2,3-triazole-4-carboxamide] | 37% | > 1000 nM | > 92000 nM |
| Cc1ccccc1-n1cc(C(=O)Nc2ccc3ccccc3n2)nn1 [YA70131, N-(Quinolin-2-yl)-1-(o-tolyl)-1H-1,2,3-triazole-4-carboxamide] | – | > 1000 nM | > 92000 nM |
| Cc1ccccc1-n1nnc(C(=O)Nc2nc3cc(Cl)ccc3s2)c1C [YA4013, N-(5-Chlorobenzo[d]thiazol-2-yl)-5-methyl-1-(o-tolyl)-1H-1,2,3-triazole-4-carboxamide] | 61% | 202 nM | > 92000 nM |
| COc1ccccc1-n1nnc(C(=O)Nc2ccc3ccccc3n2)n1 [YA70034, 2-(2-Methoxyphenyl)-N-(quinolin-2-yl)-2H-tetrazole-5-carboxamide] | – | > 1000 nM | > 92000 nM |
| Cc1ccc2nc(NC(=O)c3nnn(-c4ccccc4C)c3C)sc2c1 [YA4069, 5-Methyl-N-(6-methylbenzo[d]thiazol-2-yl)-1-(o-tolyl)-1H-1,2,3-triazole-4-carboxamide] | – | 15 nM | > 92000 nM |
| Cc1ccc(-n2nnc(C(=O)Nc3nc4ccccc4s3)c2C)c(C)c1 [YA4039] | 88% | 17 nM | > 92000 nM |
| CCc1ccccc1-n1ncc(C(=O)Nc2nc3ccccc3s2)c1C [YA4009, N-(Benzo[d]thiazol-2-yl)-1-(2-ethylphenyl)-5-methyl-1H-pyrazole-4-carboxamide] | – | 6.7 nM | > 92000 nM |
| Cc1c(C(=O)Nc2nc3ccccc3s2)nnn1-c1cc(F)ccc1F [YA1084, N-(Benzo[d]thiazol-2-yl)-1-(2,5-difluorophenyl)-5-methyl-1H-1,2,3-triazole-4-carboxamide] | 88% | 4.7 nM | > 92000 nM |
| CCc1c(C(=O)Nc2nc3ccccc3s2)cnn1-c1ccccc1 [YA6143, N-(Benzo[d]thiazol-2-yl)-5-ethyl-1-phenyl-1H-pyrazole-4-carboxamide] | – | 3.6 nM | > 92000 nM |
| Cc1c(C(=O)Nc2nc3ccccc3s2)nnn1-c1ccc(F)cc1F [YA1046, N-(Benzo[d]thiazol-2-yl)-1-(2,4-difluorophenyl)-5-methyl-1H-1,2,3-triazole-4-carboxamide] | 40% | > 1000 nM | > 92000 nM |
| Cc1ccccc1-n1nnc(C(=O)Nc2nc3cc(Br)ccc3s2)c1C [YA4047, N-(5-Bromobenzo[d]thiazol-2-yl)-5-methyl-1-(o-tolyl)-1H-1,2,3-triazole-4-carboxamide] | 14% | > 1000 nM | > 92000 nM |
| Cc1ccccc1-n1nnc(C(=O)Nc2nc3ccc(Cl)cc3s2)c1C [YA4071, N-(6-Chlorobenzo[d]thiazol-2-yl)-5-methyl-1-(o-tolyl)-1H-1,2,3-triazole-4-carboxamide] | – | 67 nM | > 92000 nM |
| Cc1c(C(=O)Nc2nc(-c3ccccc3)cs2)cnn1-c1ccccc1Br [YA4087, 1-(2-Bromophenyl)-5-methyl-N-(4-phenylthiazol-2-yl)-1H-pyrazole-4-carboxamide] | – | > 1000 nM | > 92000 nM |
| Cc1ccccc1-n1nnc(C(=O)Nc2cnc3ccccc3c2)c1C [YA6161, 5-Methyl-N-(quinolin-3-yl)-1-(o-tolyl)-1H-1,2,3-triazole-4-carboxamide] | – | > 1000 nM | > 92000 nM |
| O=C(Nc1ccc2ccccc2n1)c1nnn(-c2ccccc2Cl)n1 [YA70033, 2-(2-Chlorophenyl)-N-(quinolin-2-yl)-2H-tetrazole-5-carboxamide] | – | > 1000 nM | > 92000 nM |
| Cc1c(C(=O)Nc2nc3ccccc3s2)nnn1-c1cccc(F)c1 [YA1072, N-(Benzo[d]thiazol-2-yl)-1-(3-fluorophenyl)-5-methyl-1H-1,2,3-triazole-4-carboxamide] | 42% | > 1000 nM | > 92000 nM |
| Cc1ccccc1-n1ncc(C(=O)Nc2ccc(-c3ccccc3)cc2)c1C [YA7016, N-([1,1′-biphenyl]-4-yl)-5-methyl-1-(o-tolyl)-1H-pyrazole-4-carboxamide] | – | > 1000 nM | > 92000 nM |
